From ChEMBL document CHEMBL1955839, “Synthesis and structure-activity relationship of 4-amino-2-phenylpyrimidine derivatives as a series of novel GPR119 agonists” (Bioorg Med Chem, 2012) come the findings set out here.

Series [1] addresses T1, Glucose-dependent insulinotropic receptor (Homo sapiens) (UniProt Q8TDV5).
T1 sequence (whole entry): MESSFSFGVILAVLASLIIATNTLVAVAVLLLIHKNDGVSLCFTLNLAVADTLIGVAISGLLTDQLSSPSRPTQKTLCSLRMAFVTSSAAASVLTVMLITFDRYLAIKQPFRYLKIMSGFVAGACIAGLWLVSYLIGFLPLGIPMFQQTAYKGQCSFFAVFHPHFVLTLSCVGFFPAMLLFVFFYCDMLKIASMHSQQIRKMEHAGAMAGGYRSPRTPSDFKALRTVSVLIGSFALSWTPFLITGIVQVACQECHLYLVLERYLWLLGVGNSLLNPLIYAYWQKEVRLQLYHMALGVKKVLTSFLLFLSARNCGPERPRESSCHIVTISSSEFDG
As to the kind of experiment: Agonist activity at human GPR119 expressed in HEK293 cells co-transfected with pCRE-Luc assessed as induction in cAMP level after 6 hrs by luciferase reporter gene assay relative to 10 uM of 2-{[2-(4-Bromophenyl)-6-methylpyrimidin-4-yl]amino}ethanol. Type of series: functional, cell-based.

The target in series [2] is T1, Glucose-dependent insulinotropic receptor (Homo sapiens). The series is described as follows: Agonist activity at human GPR119 expressed in HEK293 cells co-transfected with pCRE-Luc assessed as induction in cAMP level at 10 uM after 6 hrs by luciferase reporter gene assay relative to 10 uM of 2-{[2-(4-Bromophenyl)-6-methylpyrimidin-4-yl]amino}ethanol. It is filed as functional, cell-based.

Series [3] relates to Mus musculus. The series is described as follows: Antihyperglycemic activity in ICR mouse assessed as blood glucose lowering ratio at 10 mg/kg, po administered 10 mins prior glucose challenge measured after 30 mins by oral glucose tolerance test. Type of series: functional.
In series [4] the target is T2, Cytochrome P450 1A2 (Homo sapiens, UniProt P05177).
T2 sequence (P05177 whole entry): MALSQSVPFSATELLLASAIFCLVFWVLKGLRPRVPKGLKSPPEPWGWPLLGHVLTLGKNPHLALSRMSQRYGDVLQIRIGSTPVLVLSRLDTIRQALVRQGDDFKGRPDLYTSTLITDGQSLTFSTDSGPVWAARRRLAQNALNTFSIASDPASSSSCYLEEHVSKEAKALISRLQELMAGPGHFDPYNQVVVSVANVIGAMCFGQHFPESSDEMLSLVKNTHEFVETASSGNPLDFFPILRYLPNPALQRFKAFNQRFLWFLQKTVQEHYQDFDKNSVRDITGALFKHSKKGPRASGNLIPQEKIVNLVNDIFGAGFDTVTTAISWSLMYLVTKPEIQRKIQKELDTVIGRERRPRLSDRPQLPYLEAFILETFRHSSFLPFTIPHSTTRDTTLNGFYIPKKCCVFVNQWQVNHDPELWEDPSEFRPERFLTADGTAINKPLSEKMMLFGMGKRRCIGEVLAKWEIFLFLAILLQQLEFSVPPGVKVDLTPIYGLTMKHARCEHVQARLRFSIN
The series is described as follows: Inhibition of CYP1A2. It is filed as ADME.

Series [5] can be described thus: Tmax in rat at 3 mg/kg, po. It is filed as ADME, organism-based. Further details: dose 3 mg/kg, route oral. Conditions: in vivo.
Series [6] is described as follows: Half life in rat at 1 mg/kg, iv. It is filed as ADME, organism-based. Further details: dose 1 mg/kg, route intravenous. To be noted: in vivo.
A short description of series [7]: Volume of distribution at steady state in rat at 1 mg/kg, iv. Type of series: ADME, organism-based. Also noted: dose 1 mg/kg, route intravenous. To be noted: in vivo, read-out: Vdss.
Series [8] in a line: Total clearance in rat at 1 mg/kg, iv. It is filed as ADME, organism-based. Further details: dose 1 mg/kg, route intravenous. Conditions: in vivo.
A short description of series [9]: Oral bioavailability in rat at 3 mg/kg. Type of series: ADME, organism-based. To be noted: in vivo.
The subject of series [10] is Mus musculus. As to the kind of experiment: Antihyperglycemic activity in ICR mouse assessed as blood glucose lowering ratio at 30 mg/kg, po administered 10 mins prior glucose challenge measured after 30 mins by oral glucose tolerance test. It is filed as functional.

On to `Cc1cc(NCCc2cccnc2)nc(-c2ccc(Br)cc2)n1`, for which the EC in series [1] turned out to be 0.73 µM. For the same molecule, the Intrinsic activity in series [2] was 772%. Moreover, the Activity in series [3] stood at 17%. In addition, the IC50 in series [4] is less than 91 nM.
Turning to `Cc1cc(NCCO)nc(-c2ccc(Cl)cc2)n1`, in series [1], the EC worked out at 12 µM. In [2], the Intrinsic activity was found to be 48%.
As to `Cc1cc(NCC(C)O)nc(-c2ccc(Br)cc2)n1` (stereo unspecified), in series [1], the EC was determined as 3.6 µM. In addition, the Intrinsic activity in series [2] came to 209%.
In the case of `Cc1cc(NCc2cccnc2)nc(-c2ccc(Br)cc2)n1`, in [1], the EC was found to be 1.3 µM. Also, the Intrinsic activity in [2] came out at 294%. Also, in [4], the IC50 is less than 46 nM.
In the case of `COCCNc1cc(C)nc(-c2ccc(Br)cc2)n1`, the EC in [1] was 1.8 µM. For the same molecule, the Intrinsic activity in [2] was 209%. Also, in [3], the Activity is 13%. Moreover, in series [4], the IC50 was less than 91 nM.
In the same order, the values of `Cc1cc(NCC(C)C)nc(-c2ccc(Br)cc2)n1` are 0.91 µM, 322%, 24% and less than 91 nM.
With `Cc1cc(NCCc2ccc[n+]([O-])c2)nc(-c2ccc(Br)cc2)n1`, the Activity in series [3] is recorded as 38%. For the same molecule, half-maximal inhibition in series [4] (IC50) was put at 970 nM. Also, the Tmax in series [5] worked out at 15 min. In [6], this molecule gave a half-life of 72 min. Also, the Vd in [7] was determined as 2 L/kg. This molecule had a clearance in series [8] of 20.1 mL/min/kg. The molecule further displayed a bioavailability in series [9] of 56%.
For `Cc1cc(NCCO)nc(-c2ccc(I)cc2)n1`, in [1], the EC stood at 19 µM. Further, the Intrinsic activity in [2] amounted to 66%.
Take `Cc1cc(NCCO)nc(-c2ccc(Br)cc2)n1`: in [10], the Activity amounted to 17%. Besides, in series [4], half-maximal inhibition (IC50) was put at 660 nM.
With `CCc1cc(NCCO)nc(-c2ccc(Br)cc2)n1`, in series [1], the EC was found to be 5.9 µM. Moreover, the Intrinsic activity in series [2] came out at 146%.
Taken in the same sequence, the figures for `OCCNc1cc(C(F)F)nc(-c2ccc(Br)cc2)n1` were 8.2 µM and 195%.
In the same order, the values of `Cc1cc(NC(C)CO)nc(-c2ccc(Br)cc2)n1` (stereo unspecified) are 13 µM and 82%.
